pIC50: −log10 of the molar value.
Target: T1, human mGlu5 (Homo sapiens, UniProt P41594)
T1 construct: expressed in transfected cells; host or cells: HEK 293A
Assay: mGlu5 negative allosteric modulator Ca2+ flux assay in HEK 293A cells (Table 1)
Format: cell-based
Settings: HEK 293A cells stably expressing mGlu5; Ca2+ flux (Fluo-4); decrease of glutamate EC80 response; read-out: hmGlu5 NAM IC50

T1 sequence (P41594 21-1212): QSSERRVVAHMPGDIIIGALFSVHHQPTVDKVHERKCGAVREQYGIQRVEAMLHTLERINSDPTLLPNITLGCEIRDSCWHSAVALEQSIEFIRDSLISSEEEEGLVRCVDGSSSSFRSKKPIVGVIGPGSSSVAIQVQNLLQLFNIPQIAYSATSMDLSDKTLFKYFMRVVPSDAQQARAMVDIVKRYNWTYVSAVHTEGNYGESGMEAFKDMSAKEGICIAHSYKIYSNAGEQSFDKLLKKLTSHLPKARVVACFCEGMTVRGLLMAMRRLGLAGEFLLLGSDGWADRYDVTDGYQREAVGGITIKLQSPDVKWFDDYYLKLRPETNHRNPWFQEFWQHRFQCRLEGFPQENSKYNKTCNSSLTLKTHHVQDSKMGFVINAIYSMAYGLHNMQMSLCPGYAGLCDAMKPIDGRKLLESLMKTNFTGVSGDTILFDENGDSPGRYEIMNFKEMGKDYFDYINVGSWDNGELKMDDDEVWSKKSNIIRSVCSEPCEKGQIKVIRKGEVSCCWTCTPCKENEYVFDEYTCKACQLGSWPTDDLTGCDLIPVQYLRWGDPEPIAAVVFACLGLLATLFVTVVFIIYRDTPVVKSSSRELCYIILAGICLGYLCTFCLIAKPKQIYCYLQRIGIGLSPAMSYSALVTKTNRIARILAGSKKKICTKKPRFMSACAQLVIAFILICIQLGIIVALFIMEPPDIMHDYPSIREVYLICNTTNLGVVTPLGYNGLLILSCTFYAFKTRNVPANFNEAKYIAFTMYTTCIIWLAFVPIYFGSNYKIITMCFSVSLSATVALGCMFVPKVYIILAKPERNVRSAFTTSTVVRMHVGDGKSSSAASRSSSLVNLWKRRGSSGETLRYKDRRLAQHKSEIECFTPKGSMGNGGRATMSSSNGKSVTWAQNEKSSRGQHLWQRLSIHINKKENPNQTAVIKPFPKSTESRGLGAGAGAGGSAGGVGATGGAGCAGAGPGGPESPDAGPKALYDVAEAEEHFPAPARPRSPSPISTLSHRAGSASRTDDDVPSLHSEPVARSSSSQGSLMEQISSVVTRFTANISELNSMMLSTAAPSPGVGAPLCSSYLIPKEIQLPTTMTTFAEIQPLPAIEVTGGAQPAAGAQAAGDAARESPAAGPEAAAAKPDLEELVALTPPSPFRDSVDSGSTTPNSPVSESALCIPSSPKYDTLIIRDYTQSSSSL

| pIC50 | Compound |
| --- | --- |
| 6.17 | Cc1ccncc1-c1cc(C(=O)Nc2ccc(Cl)cn2)cc(F)c1F [Compound 31, N-(5-chloropyridin-2-yl)-3,4-difluoro-5-(4-methylpyridin-3-yl)benzamide] |
| 6.44 | Cc1cccc(NC(=O)c2cc(-c3cnccc3C)ccc2F)n1 [Compound 13, 2-fluoro-N-(6-methylpyridin-2-yl)-5-(4-methylpyridin-3-yl)benzamide] |
| 6.72 | Cc1ccncc1-c1cc(C(=O)Nc2cccc(Cl)n2)c(F)cc1F [Compound 48, N-(6-chloropyridin-2-yl)-2,4-difluoro-5-(4-methylpyridin-3-yl)benzamide] |
| 5.19 | Cc1ccncc1-c1cc(C(=O)Nc2ccc(F)cn2)c(F)cc1F [Compound 38, 2,4-difluoro-N-(5-fluoropyridin-2-yl)-5-(4-methylpyridin-3-yl)benzamide] |
